Laboratory results reported in patent US20130260025A1, “Group 2 Imidazolate Formulations for Direct Liquid Injection” (AIR PRODUCTS AND CHEMICALS, INC., priority 2012, published 2013).

Experiments:
[1] = Solubility of strontium imidazolate adducts in mesitylene; assay type: physicochemical
Source text: A fixed volume of the solution was then weighed. […] […].

[2] = Solubility of strontium imidazolate adducts in cyclooctane
Procedure: Solubility was determined by taking a weighed amount of solvent at room temperature, incrementally adding metal complex with mixing until not more could be dissolved then reweighing the resultant solution to permit the weight percentage of metal complex dissolved to be calculated. A fixed volume of the solution was then weighed. […] The moles of metal complex is then divided by the volume of weighed solution in liters to yield the molarity of the solution.

[3] = Thermogravimetric analysis (TGA)/differential scanning calorimetry (DSC); assay type: physicochemical
Procedure: Thermogravimetric analysis (TGA) of the complexes listed in Tables 1 and 2 were conducted whereby samples were suspended in a microbalance pan under a steady stream of nitrogen while being heated under a constant rate. Weight loss is measured as a function of temperature/time while a differential scanning calorimeter monitors exotherms (decomposition) or endotherms (phase change/melting or evaporative cooling).

[4] = saturated solution in mesitylene, room temperature
[5] = saturated solution in cyclooctane, room temperature

Row | SMILES | Molarity of strontium complex [1, 4] [M] | Wt % of strontium complex [1, 4] [Wt %] | Molarity of strontium complex [2, 5] [M] | Wt % of strontium complex [2, 5] [Wt %] | temperature at which weight loss associated with loss of tetrahydrofuran significantly begins ([3]; TGA under nitrogen stream, constant heating rate, FIG. 7) [°C] | Molarity of strontium complex [1] [M] | Wt % of strontium complex [1] [Wt %] | Molarity of strontium complex [2] [M] | Wt % of strontium complex [2] [Wt %] | TGA residual mass [3] [%] | times more soluble in mesitylene than parent complex [1] | times more soluble in cyclooctane than parent complex [2]
1 | CC(C)(C)c1nc(C(C)(C)C)c(C(C)(C)C)[n-]1.CC(C)(C)c1nc(C(C)(C)C)c(C(C)(C)C)[n-]1.COC(C)OC.[Sr+2] [Strontium bis(2,4,5-tri-tert-butylimidazolate)(1,1-dimethoxyethane)] | 0.13 | 9.0 | 0.03 | 2.1 |  |  |  |  |  |  |  | 
2 | C1CCOC1.CC(C)(C)c1nc(C(C)(C)C)c(C(C)(C)C)[n-]1.CC(C)(C)c1nc(C(C)(C)C)c(C(C)(C)C)[n-]1.[Sr+2] [Strontium bis(2,4,5-tri-tert-butylimidazolatee)(tetrahydrofuran)] | 0.6 | 28.2 | 0.35 | 23.6 | ≥ 100 |  |  |  |  |  |  | 
3 | CC(C)(C)c1nc(C(C)(C)C)c(C(C)(C)C)[n-]1.CC(C)(C)c1nc(C(C)(C)C)c(C(C)(C)C)[n-]1.COCC(C)OC.[Sr+2] [Strontium bis(2,4,5-tri-tert-butylimidazolate)(1,2-dimethoxypropane)] |  |  |  |  |  | 0.093 | 7.3 | 0.04 | 2.8 |  |  | 
4 | C1=CCOC1.CC(C)(C)c1nc(C(C)(C)C)c(C(C)(C)C)[n-]1.CC(C)(C)c1nc(C(C)(C)C)c(C(C)(C)C)[n-]1.[Sr+2] [Strontium bis(2,4,5-tri-tert-butylimidazolate)(2,5-dihydrofuran)] |  |  |  |  |  |  | 38 | 0.37 | 24 | 8.09 | 9-13 times | 11-12 times
5 | CC(C)(C)c1nc(C(C)(C)C)c(C(C)(C)C)[n-]1.CC(C)(C)c1nc(C(C)(C)C)c(C(C)(C)C)[n-]1.CC1CCOC1.[Sr+2] [Strontium bis(2,4,5-tri-tert-butylimidazolate)(3-methyltetrahydrofuran)] |  |  |  |  |  | 0.44 | 28.8 | 0.05 | 3.5 |  | 9-13 times | 
6 | CC(C)(C)c1nc(C(C)(C)C)c(C(C)(C)C)[n-]1.CC(C)(C)c1nc(C(C)(C)C)c(C(C)(C)C)[n-]1.CN(C)CCN(C)C.[Sr+2] [Strontium bis(2,4,5-tri-tert-butylimidazolate)(tetramethylethlenediamine)] | 0.041 | 3.3 | 0.02 | 1.8 |  |  |  |  |  |  |  | 
